Results taken from patent US12653191B2, “Active compound combinations” (Bayer Aktiengesellschaft, priority 2020, dated 2026).
“And” between values parts separate entries of the source, which are not always exact repeats. Identical values can stand only once.

What was measured:
[1] = system: Alternaria alternata; assay: in vitro-Test with fungal microorganisms, Method B (tables A13-A22); type: cell-based
Outline: (§1)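 Efficacy, relative to untreated control (0% = growth as in control, 100% = no growth), from photometric growth measurement at 600 nm after 3 to 7 days at 20° C., 85% relative humidity. Compound applied in methanol+emulsifier, solvent evaporated, then spore/mycelium-amended liquid medium added.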

[2] = system: Cercospora beticola; assay: in vitro-Test with fungal microorganisms, Method B (tables C11-C20); type: cell-based
Outline: as §1

[3] = system: Colletotrichum lindemuthianum; assay: in vitro-Test with fungal microorganisms, Method A (tables D1-D8); type: cell-based
Outline: (§2)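 Compound was dried into wells and overlaid with liquid potato dextrose medium containing spores or mycelium of the fungus. Plates were held at 20° C and 85% RH, and growth was read as extinction at 620 nm after 3–5 days. Efficacy is relative to the untreated control (0% = control growth, 100% = no growth).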

[4] = system: Cordana musae; assay: in vitro-Test with fungal microorganisms, Method A (tables E1-E8); type: cell-based
Outline: as §2

[5] = system: Cordana musae; assay: in vitro-Test with fungal microorganisms, Method B (tables E9-E16); type: cell-based; settings: single active
Outline: as §1

[6] = system: Diaporthe citri; assay: in vitro-Test with fungal microorganisms, Method A (tables F1-F11); type: cell-based
Outline: as §2

[7] = system: Diaporthe citri; assay: in vitro-Test with fungal microorganisms, Method B (tables F12-F15); type: cell-based
Method: (§3) Example: In Vitro-Test with Fungal Microorganisms
(§4) Wells of 96-well microtiter plates are filled with 30 μl of a preparation of test compound or compound combination in methanol+emulsifier alkylaryl-polyglycol-ether. Thereafter, the solvent is evaporated in a hood. At the next step, 200 μl of liquid growth medium is given, that has been amended with an appropriate concentration of spores or mycelium suspension of the test fungus.
(§5) With the aid of a photometer, the extinction in all wells is measured at the wavelength of 600 nm.
(§6) The microtiter plates are incubated for 3 to 7 days at 20° C. and 85% relative humidity. After the incubation inhibition of growth is determined photometrically. Efficacy is calculated in relation to the untreated control, 0% efficacy means fungal growth as high as in untreated control while 100% efficacy means no fungal growth is measured.
(§7) The data in tables A1 to A12, B1 to B14, C1 to C10, D1 to D8, E1 to E8, F1 to F11, G1 to G4, H1 to H4 and I1 to I5 were collected according to Method A. The data in tables A13 to A22, B15 to B18, C11 to C20, E9 to E16, F12 to F15, G5 to G15, H5 to H8, I6 to I11 and J1 to J11 were collected according to Method B.

[8] = system: Fusarium culmorum; assay: in vitro-Test with fungal microorganisms, Method B (tables G5-G15); type: cell-based
Outline: as §1

[9] = system: Colletotrichum coccodes; assay: in vitro-Test with fungal microorganisms, Method B (tables J1-J11); type: cell-based
Outline: as §1

[10] = system: Alternaria alternate; assay: in vitro-Test with fungal microorganisms, Method A (tables A1-A12); type: cell-based, Alternaria alternata; settings: applied alone
Outline: as §2

[11] = system: Botrytis cinerea; assay: in vitro-Test with fungal microorganisms, Method A (tables B1-B14); type: cell-based; settings: for Efficacy %: alone
Outline: as §2

[12] = system: Botrytis cinerea; assay: in vitro-Test with fungal microorganisms, Method B (tables B15-B18); type: cell-based
Outline: as §1

[13] = system: Cercospora beticola; assay: in vitro-Test with fungal microorganisms, Method A (tables C1-C10); type: cell-based
Outline: as §2

[14] = system: Parastagonospora nodorum; assay: in vitro-Test with fungal microorganisms, Method B (tables H5-H8); type: cell-based; settings: 0.08 ppm
Method: as §3, §4, §5, §6, §7

[15] = system: Ustilago segetum var. avenae; assay: in vitro-Test with fungal microorganisms, Method B (tables I6-I11); type: cell-based
Outline: as §1

[16] = single active compound, 100 ppm
[17] = single active compound at 20 ppm
[18] = single active compound at 100 ppm

For `N#Cc1ccccc1NC(=O)c1snc(Cl)c1Cl` [(6.002) isotianil, isotianil], the Efficacy ([1]; 4 ppm) was 0%, the Efficacy ([1]; 20 ppm) was 0% and the Efficacy ([1]; 100 ppm) was 15%. It also gave an Efficacy ([1]; single compound, 0.8 ppm) of 0%, an Efficacy ([1]; single compound, 20 ppm) of 11% and an Efficacy % ([2]; 4 ppm) of 8%. It also gave an Efficacy % ([2]; 20 ppm) of 3%, an Efficacy % ([2]; single compound, 100 ppm) of 0% and an Efficacy % ([3]; mixing partner alone, 0.8 ppm) of 0%. It also gave an Efficacy % ([3]; mixing partner alone, 4.0 ppm) of 9%, an Efficacy % ([3]; mixing partner alone, 20.0 ppm) of 3% and an Efficacy % ([3]; mixing partner alone, 100.0 ppm) of 0%. It also gave an Efficacy % ([4]; single substance, 0.8 ppm) of 9%, an Efficacy % ([4]; single substance, 4.0 ppm) of 6% and an Efficacy % ([4]; single substance, 20.0 ppm) of 0%. For the same compound, the Efficacy ([5]; 0.8 ppm) was 9%, the Efficacy ([5]; 4 ppm) was 15% and 18% and the Efficacy ([5]; 20 ppm) was 10% and 18%. It also gave an Efficacy ([5]; 100 ppm) of 7%, an Efficacy ([6]; Table F11, 0.8 ppm alone) of 0% and an Efficacy ([6]; Table F11, 4.0 ppm alone) of 22%. The Efficacy ([6]; Table F11, 20.0 ppm alone) was 37%, the Efficacy ([6]; Table F11, 100.0 ppm alone) was 0% and the Efficacy ([6]; applied alone, 0.8 ppm) was 29%. The Efficacy ([6]; applied alone, 4.0 ppm) was 5%, the Efficacy ([6]; applied alone, 20.0 ppm) was 15% and the Efficacy ([6]; applied alone, 100.0 ppm) was 16%. For the same compound, the Efficacy ([6]; single active, 0.8 ppm) was 0%, the Efficacy ([6]; single active, 4.0 ppm) was 12% and the Efficacy ([6]; single active, 20.0 ppm) was 14%. It also gave an Efficacy ([6]; single active, 100.0 ppm) of 18%, an Efficacy ([7]; Table F14, 0.8 ppm alone) of 10% and an Efficacy ([7]; Table F14, 4 ppm alone) of 9%. The Efficacy ([7]; Table F14, 20 ppm alone) was 5%, the Efficacy ([7]; Table F14, 100 ppm alone) was 19% and the Efficacy ([8]; single active compound, 0.8 ppm) was 7%. The Efficacy ([8]; single active compound, 4 ppm) was 16%, the Efficacy ([8]; single active compound, 20 ppm) was 14% and the Efficacy [8, 16] was 20%. For the same compound, the Efficacy % [9, 17] was 0% and the Efficacy % [9, 18] was 0%.
`CCCOc1nc2ccc(I)cc2c(=O)n1CCC` [(13.004) proquinazid, proquinazid] gave an Efficacy % ([10]; 0.08 ppm) of 19%, an Efficacy % ([10]; 0.4 ppm) of 6% and an Efficacy % ([10]; 2.0 ppm) of 0%. The Efficacy % ([10]; 10.0 ppm) was 9%, the Efficacy ([1]; 0.08 ppm) was 0% and the Efficacy ([1]; 0.4 ppm) was 3%. The Efficacy ([1]; 2 ppm) was 4%, the Efficacy ([1]; single compound, 0.08 ppm) was 11% and the Efficacy ([1]; single compound, 0.4 ppm) was 10%. The Efficacy ([1]; single compound, 2 ppm) was 0%, the Efficacy ([1]; single compound, 10 ppm) was 5% and the Efficacy ([11]; 0.08 ppm) was 13%. For the same compound, the Efficacy ([11]; 0.4 ppm) was 0%, the Efficacy ([11]; 2.0 ppm) was 0% and the Efficacy ([11]; 10.0 ppm) was 0%. The Efficacy % ([11]; 0.4 ppm) was 0%, the Efficacy % ([11]; 10.0 ppm) was 0% and the Efficacy % ([12]; 0.4 ppm alone) was 0%. The Efficacy % ([12]; 2 ppm alone) was 3% and 5%, the Efficacy % ([13]; 0.08 ppm alone) was 9% and the Efficacy % ([13]; 0.4 ppm alone) was 0%. For the same compound, the Efficacy % ([13]; 2.0 ppm alone) was 0%, the Efficacy % ([13]; 10.0 ppm, alone) was 19% and the Efficacy % ([2]; 2 ppm) was 0%. The Efficacy % ([2]; 10 ppm) was 0%, the Efficacy % ([2]; single compound, 0.08 ppm) was 0% and the Efficacy % ([3]; single active at 0.08 ppm) was 0%. The Efficacy % ([3]; single active at 0.4 ppm) was 0%, the Efficacy % ([3]; single active at 2.0 ppm) was 2% and the Efficacy % ([3]; single active at 10.0 ppm) was 25%. For the same compound, the Efficacy % ([4]; mixing partner alone, 0.08 ppm) was 0%, the Efficacy % ([4]; mixing partner alone, 0.4 ppm) was 0% and the Efficacy % ([4]; mixing partner alone, 2.0 ppm) was 1%. The Efficacy % ([4]; mixing partner alone, 10.0 ppm) was 26%, the Efficacy ([5]; 0.08 ppm) was 0% and 5% and the Efficacy ([5]; 0.4 ppm) was 0% and 3%. The Efficacy ([5]; 10 ppm) was 15% and 20%, the Efficacy ([6]; Table F10, 0.08 ppm alone) was 0% and the Efficacy ([6]; Table F10, 0.4 ppm alone) was 0%. It also gave an Efficacy ([6]; Table F10, 2.0 ppm alone) of 12%, an Efficacy ([6]; Table F10, 10.0 ppm alone) of 24% and an Efficacy ([6]; applied alone, 0.08 ppm) of 16%. For the same compound, the Efficacy ([6]; applied alone, 0.4 ppm) was 0%, the Efficacy ([6]; applied alone, 10.0 ppm) was 21% and the Efficacy ([8]; 0.08 ppm alone) was 18%. For the same compound, the Efficacy ([8]; 0.4 ppm alone) was 0%, the Efficacy ([8]; single active compound, 0.08 ppm) was 2% and the Efficacy ([8]; single active compound, 0.4 ppm) was 11%. The Efficacy ([8]; single active compound, 2 ppm) was 8% and 7%, the Efficacy [14] was 32% and the Efficacy % ([9]; single active compound at 0.4 ppm) was 0%. It also gave an Efficacy % ([9]; single active compound at 2 ppm) of 0% and an Efficacy % ([9]; single active compound at 10 ppm) of 0%.
For `CCO[PH](=O)[O-].CCO[PH](=O)[O-].CCO[PH](=O)[O-].[Al+3]` [(15.012) fosetylal], the Efficacy ([7]; Table F12, 0.8 ppm alone) was 13%, the Efficacy ([7]; Table F12, 4 ppm alone) was 7% and the Efficacy ([8]; single active compound, 4 ppm) was 5%. It also gave an Efficacy ([8]; single active compound, 20 ppm) of 11%, an Efficacy [8, 16] of 30% and an Efficacy % ([15]; 0.8 ppm) of 2%. It also gave an Efficacy % ([15]; 20 ppm) of 0%, an Efficacy % ([9]; 0.8 ppm) of 0% and an Efficacy % ([9]; 4 ppm) of 0%. The Efficacy % ([9]; 20 ppm) was 0%, the Efficacy % ([9]; single active compound at 0.8 ppm) was 27% and the Efficacy % ([9]; single active compound at 4 ppm) was 0%. For the same compound, the Efficacy % [9, 17] was 2% and the Efficacy % [9, 18] was 15%.
